In patent US6479514B1, “Quinoline-aminomethyl-pyridyl derivatives with anti-helicobacter activity” (Altana Pharma AG, priority 1998, dated 2002):

Tests used:
Helicobacter pylori = experiment: Activity against Helicobacter pylori, agar dilution (method of Iwahi et al.), Columbia agar, 4 days growth; format: cell-based; settings: Columbia agar (Oxoid), growth period of 4 days, approximate values; for MIC50: 96 h, read-out: Appr. MIC 50
Text: The compounds of the formula I were investigated with respect to their activity against Helicobacter pylori following the method described by Tomoyuki Iwahi et al. (Antimicrobial Agents and Chemotherapy, 1991, 490-496) using Columbia agar (Oxoid) and a growth period of 4 days.

| MIC50 (Helicobacter pylori) | melting point | Appr. MIC 50 (Helicobacter pylori) | Compound |
| --- | --- | --- | --- |
| ≤ 0.1 µg/mL | 98 to 100 °C |  | Cc1c(SCCCSCC2CN(C)C(=O)O2)ccnc1CNc1cnc2ccccc2c1 (stereo not shown) [Compound 1, 3-Methyl-5-{3-[3-methyl-2-(quinolin-3-ylaminomethyl)pyridin4-ylsulfanyl]propylsulfanylmethyl}oxazolidin-2-one] |
| ≤ 0.1 µg/mL |  |  | Cc1c(SCCCSc2ncccn2)ccnc1CNc1cnc2ccccc2c1 [Compound 2, {3-Methyl4-[3-(pyrimidin-2-ylsulfanyl)propylsulfanyl]pyridin-2-ylmethyl}quinolin-3-ylamine] |
|  | 105 to 108 °C |  | Cc1c(SCCCN2CCNCC2)ccnc1CNc1cnc2ccccc2c1 [Compound 4, [3-Methyl-4-(3-piperazin-1-ylpropylsulfanyl)pyridin-2-ylmethyl]quinolin-3-ylamine] |
| ≤ 0.1 µg/mL |  |  | Cc1c(SCCSCc2ccncc2)ccnc1CNc1cnc2ccccc2c1 [Compound 8, {3-Methyl-4-[2-(pyridin-4-ylmethylsulfanyl)ethylsulfanyl]pyridin-2-ylmethyl}quinolin-3-ylamine] |
| ≤ 0.1 µg/mL | 152 to 154 °C |  | Cc1c(SCCSCCn2c([N+](=O)[O-])cnc2C)ccnc1CNc1cnc2ccccc2c1 [Compound 9, (3-Methyl-4-{2-[2-(2-methyl-5-nitroimidazol-1-yl)ethylsulfanyl]ethylsulfanyl}pyridin-2-ylmethyl)quinolin-3-ylamine] |
| ≤ 0.1 µg/mL |  |  | Cc1c(SCCCN2CCN(Cc3ccncc3)CC2)ccnc1CNc1cnc2ccccc2c1 [Compound 10, {3-Methyl-4-[3-(4-pyridin-4-ylmethylpiperazin-1-yl)propylsulfanyl]pyridin-2-ylmethyl}-quinolin-3-ylamine] |
| ≤ 0.1 µg/mL |  |  | Cc1c(SCCCSCC2CCCN(C)C2)ccnc1CNc1cnc2ccccc2c1.O=C(O)C(=O)O (stereo not shown) [Compound 11, {3-Methyl-4-[3-(1-methylpiperidin-3-ylmethylsulfanyl)propylsulfanyl]pyridin-2-ylmethyl}-quinolin-3-ylamine oxalate] |
| ≤ 0.1 µg/mL |  |  | Cc1c(SCCCSCc2ccncc2)ccnc1CNc1cnc2ccccc2c1 [Compound 12, {3-Methyl-4-[3-(pyridin-4-ylmethylsulfanyl)propylsulfanyl]pyridin-2-ylmethyl}quinolin-3-ylamine] |
|  |  | ≦0.1 μg/ml | Cc1c(SCCCCSCCn2c([N+](=O)[O-])cnc2C)ccnc1CNc1cnc2ccccc2c1 [Compound 13, (3-Methyl-4-{4-[2-(2-methyl-5-nitroimidazol-1-yl)ethylsulfanylbutyl]sulfanyl}pyridin-2-yl-methyl)quinolin-3-ylamine] |
| ≤ 0.1 µg/mL |  |  | Cc1c(SCCCSCc2ccc(Cl)s2)ccnc1CNc1cnc2ccccc2c1 [Compound 14, {4-[3-(5-Chlorothiophen-2-ylmethylsulfanyl)propylsulfanyl]-3-methylpyridin-2-ylmethyl}-quinolin-3-ylamine] |
| ≤ 0.1 µg/mL | 133 to 135 °C |  | Cc1c(SCCCSCCn2c([N+](=O)[O-])cnc2C)ccnc1CNc1cnc2ccccc2c1 [Compound 15, (3-Methyl-4-{3-[2-(2-methyl-5-nitroimidazol-1-yl)ethylsulfanyl]propylsulfanyl}-pyridin-2-ylmethyl)quinolin-3-ylamine] |
| ≤ 0.1 µg/mL | 100 to 104 °C |  | Cc1c(SCCCSCC2CN(C(C)C)C(=O)O2)ccnc1CNc1cnc2ccccc2c1 (stereo not shown) [Compound 17, 3-Isopropyl-5-{3-[3-methyl-2-(quinolin-3-ylaminomethyl)-pyridin-4-ylsulfanyl]-propylsulfanylmethyl}-oxazolidin-2-one] |
| ≤ 0.1 µg/mL | 95 to 99 °C |  | Cc1c(SCCCSCCCn2cc([N+](=O)[O-])nc2C)ccnc1CNc1cnc2ccccc2c1 [Compound 18, (3-Methyl-4-{3-[3-(2-methyl-4-nitro-imidazol-1-yl)-propylsulfanyl]-propylsulfanyl}-pyridin-2-ylmethyl)-quinolin-3-yl-amine] |
| ≤ 0.1 µg/mL | 78 to 81 °C |  | Cc1c(SCCCSCC2CN(CC3CC3)C(=O)O2)ccnc1CNc1cnc2ccccc2c1 (stereo not shown) [Compound 19, 3-Cyclopropylmethyl-5-{3-[3-methyl-2-(quinolin-3-ylaminomethyl)-pyridin-4ylsulfanyl]-propylsulfanylmethyl}-oxazolidin-2-one] |
| ≤ 0.1 µg/mL |  |  | Cc1c(OCCSCc2ccncc2)ccnc1CNc1cnc2ccccc2c1 [Compound 21, {3-Methyl-4-[2-(pyridin-4-ylmethylsulfanyl)-ethoxy]-pyridin-2-ylmethyl}-quinolin-3-yl-amine] |
| ≤ 0.1 µg/mL | 152 to 155 °C |  | Cc1c(OCCSCCn2c([N+](=O)[O-])cnc2C)ccnc1CNc1cnc2ccccc2c1 [Compound 22, (3-Methyl-4-{2-[2-(2-methyl-5-nitro-imidazol-1-yl)-ethylsulfanyl]-ethoxy}-pyridin-2-ylmethyl)-quinolin-3-yl-amine] |
| ≤ 0.1 µg/mL | 138 to 141 °C |  | Cc1c(OCCCSCCn2c([N+](=O)[O-])cnc2C)ccnc1CNc1cnc2ccccc2c1 [Compound 23, (3-Methyl-4-{3-[2-(2-methyl-5-nitro-imidazol-1-yl)-ethylsulfanyl]-propoxy}-pyridin-2-ylmethyl)-quinolin-3-yl-amine] |
| ≤ 0.1 µg/mL |  |  | Cc1c(OCCCSCc2ccncc2)ccnc1CNc1cnc2ccccc2c1 [Compound 24, {3-Methyl-4-[3-(pyridin-4-ylmethylsulfanyl)-propoxy]-pyridin-2-ylmethyl}-quinolin-3-yl-amine] |
| ≤ 0.1 µg/mL | 125 to 126 °C |  | Cc1c(SCCCSCCO)ccnc1CNc1cnc2ccccc2c1 [Compound 25, 2-{3-[3-Methyl-2-(quinolin-3-ylaminomethyl)-pyridin-4-ylsulfanyl]-propylsulfanyl}-ethanol] |
| ≤ 0.1 µg/mL | 119 to 120 °C |  | Cc1c(OCCCCSCCO)ccnc1CNc1cnc2ccccc2c1 [Compound 26, 2-{4-[3-Methyl-2-(quinolin3-ylaminomethyl)-pyridin-4-yloxy]-butylsulfanyl}-ethanol] |
| ≤ 0.1 µg/mL |  |  | Cc1c(SCCCN2CCN(CC3CN(Cc4ccncc4)C(=O)O3)CC2)ccnc1CNc1cnc2ccccc2c1 (stereo not shown) [Compound 27, 5-(4-{3-[3-Methyl-2-(quinolin-3-ylaminomethyl)-pyridin-4-ylsulfanyl]-propyl}-piperazin-1-ylmethyl)-3-pyridin-4-ylmethyl-oxazolidin-2-one] |
| ≤ 0.1 µg/mL |  |  | Cc1c(OCCOCCSCc2ccncc2)ccnc1CNc1cnc2ccccc2c1 [Compound 28, (3-Methyl-4-{2-[2-(pyridin-4-ylmethylsulfanyl)-ethoxy]-ethoxy}-pyridin-2-ylmethyl)-quinolin-3-yl-amine] |
| ≤ 0.1 µg/mL |  |  | Cc1c(SCCCSCc2ccccn2)ccnc1CNc1cnc2ccccc2c1 [Compound 29, {3-Methyl-4-[3-(pyridin-2-ylmethylsulfanyl)-propylsulfanyl]-pyridin-2-ylmethyl}-quinolin-3-yl-amine] |
| ≤ 0.1 µg/mL | 84 to 86 °C |  | Cc1c(OCCOCCSCc2cccnc2)ccnc1CNc1cnc2ccccc2c1 [Compound 30, (3-Methyl-4-{2-[2-(pyridin-3-ylmethylsulfanyl)-ethoxy]-ethoxy}-pyridin-2-ylmethyl)-quinolin-3-yl-amine] |
| ≤ 0.1 µg/mL | 65 to 67 °C |  | Cc1c(OCCOCCSCc2ccccn2)ccnc1CNc1cnc2ccccc2c1 [Compound 31, (3-Methyl-4-{2-[2-(pyridin-2-ylmethylsulfanyl)-ethoxy]-ethoxy}-pyridin-2-ylmethyl)-quinolin-3-yl-amine] |
| ≤ 0.1 µg/mL | 106 to 108 °C |  | Cc1c(SCC2CCCN(C)C2)ccnc1CNc1cnc2ccccc2c1 (stereo not shown) [Compound 32, [3-Methyl-4-(1-methyl-piperidin-3-ylmethylsulfanyl)-pyridin-2-ylmethyl]-quinolin-3-yl-amine] |
| ≤ 0.1 µg/mL |  |  | Cc1c(OCCSCc2cccnc2)ccnc1CNc1cnc2ccccc2c1 [Compound 33, {3-Methyl-4-[2-(pyridin-3-ylmethylsulfanyl)-ethoxy]-pyridin-2-ylmethyl}-quinolin-3-yl-amine] |
| ≤ 0.1 µg/mL |  |  | Cc1c(OCCSCc2ccccn2)ccnc1CNc1cnc2ccccc2c1 [Compound 34, {3-Methyl-4-[2-(pyridin-2-ylmethylsulfanyl)-ethoxy]-pyridin-2-ylmethyl}-quinolin-3-yl-amine] |
| ≤ 0.1 µg/mL |  |  | Cc1c(SCCSCc2cccnc2)ccnc1CNc1cnc2ccccc2c1 [Compound 35, {3-Methyl-4-[2-(pyridin-3-ylmethylsulfanyl)-ethylsulfanyl]-pyridin-2-ylmethyl}-quinolin-3-yl-amine] |
| ≤ 0.1 µg/mL | 212 to 215 °C (dec.) |  | Cc1c(SCCOCC(F)(F)F)ccnc1CNc1cnc2ccccc2c1.Cl [Compound 36, (3-Methyl-4-{2-[2,2,2-trifluoro-ethoxy)-ethylsulfanyl}-pyridin-2-ylmethyl)-quinolin-3-yl-amine hydrochloride] |

| Compound | MIC50 (Helicobacter pylori) | melting point | Appr. MIC 50 (Helicobacter pylori) |
| --- | --- | --- | --- |
| Cc1c(OCCCCSCc2ccncc2)ccnc1CNc1cnc2ccccc2c1 [Compound 6, {3-Methyl-4-[4-(pyridin4-ylmethylsulfanyl)butoxy]pyridin-2-ylmethyl}quinolin3-ylamine] | ≤ 0.1 µg/mL |  |  |
| Cc1c(OCCCCSCCn2c([N+](=O)[O-])cnc2C)ccnc1CNc1cnc2ccccc2c1 [Compound 7, (3-Methyl-4-{4-[2-(2-methyl-5-nitroimidazol-1-yl)ethylsulfanyl]butoxy}pyridin-2-ylmethyl)-quinolin-3-ylamine] | ≤ 0.1 µg/mL | 154 to 158 °C |  |
| Cc1c(OCCCCSc2ncccn2)ccnc1CNc1cnc2ccccc2c1 [Compound 16, {3-Methyl-4-[4-(pyrimidin-2-ylsulfanyl)-butoxy]-pyridin-2-ylmethyl}-quinolin-3-yl-amine] | ≤ 0.1 µg/mL |  |  |
| Cc1c(OCCCCSCC2CCCN(C)C2)ccnc1CNc1cnc2ccccc2c1 (stereo not shown) [Compound 20, {3-Methyl-4-[4-(1-methyl-piperidin-3-ylmethylsulfanyl)-butoxy]-pyridin-2-ylmethyl}-quinolin-3-yl-amine] | ≤ 0.1 µg/mL |  |  |
